Consider three compounds from patent US20220389008A1, “4-QUINOLINONE ANTIBACTERIAL COMPOUNDS” (Janssen Sciences Ireland Unlimited Company, priority 2019, published 2022).

For data set [1], the system named is M. tuberculosis (strain H37Rv and H37Ra). The data set is described as follows: Time kill kinetics assay (Test 3). Type of data set: cell-based, Mycobacterium tuberculosis. The conditions noted are these: compound alone 12 μg/ml. As for the experimental part: Time Kill Kinetics Assays: Test 3
Bactericidal or bacteriostatic activity of the compounds can be determined in a time kill kinetic assay using the broth dilution method. In this assay, the starting inoculum of M. tuberculosis (strain H37Rv and H37Ra) is 10^6 CFU/ml in Middlebrook (1×) 7H9 broth. The test compounds (cyt bd inhibitors) are tested in combination with a cyt bc inhibitor (for example Q203 or Compound X) at the concentration ranging from 10-30 μM to 0.9-0.3 μM respectively. Tubes receiving no antibacterial agent constitute the culture growth control. The tubes containing the microorganism and the test compounds are incubated at 37° C. After 0, 1, 4, 7, 14 and 21 days of incubation samples are removed for determination of viable counts by serial dilution (10^0 to 10^−6) in Middlebrook 7H9 medium and plating (100 μl) on Middlebrook 7H11 agar. The plates are incubated at 37° C. for 21 days and the number of colonies are determined. Killing curves can be constructed by plotting the log10 CFU per ml versus time. A bactericidal effect of a cytochrome be and cytochrome bd inhibitor (either alone or in combination) is commonly defined as 2-log10 decrease (decrease in CFU per ml) compared to Day 0. The potential carryover effect of the drugs is limited by using 0.4% charcoal in the agar plates, and by serial dilutions and counting the colonies at highest dilution possible used for plating.
Compounds of the examples are/were tested in Test 3 (the kill kinetics) described above, obtaining results expressed as a log reduction in CFUs per ml as compared to Day 0.

Data set [2] has as its system Mycobacterium tuberculosis strain H37Rv ΔctaE-ΔqcrCAB. The data set is described as follows: microbe, parasite or virus in culture. Type of data set: cell-based. The conditions noted are these: 240 h.
The subject of data set [3] is Mitochondrial toxicity (Glu/Gal). The data set is described as follows: Mitochondrial toxicity (Glu/Gal) assay. Type of data set: cell-based. The arrangement: key to Score: “negative” means that in the test, it was found to have low mitotoxicity (and hence no mitotoxicity alerts); “positive” means that there were some mitotoxicity alerts; “inconclusive” means that no accurate conclusion could be drawn. The conditions noted are these: for Score: mitotoxicity score; for Δ IC50,glu/IC50,gal: ratio glu/gal.

The subject of data set [4] is Mycobacterium tuberculosis (strain H37Ra), cyt bd. The conditions noted are these: Mtb H37Ra; for (i) % OCR after cyt bd inhibitor: test compound 10 μM added after Compound X 0.9 μM; for (ii) % OCR after cccp: test compound 10 μM after Compound X 0.9 μM, then CCCP 1 μM.
The subject of the next data set is rCaCh. The data set is described as follows: CVS / cardio tox rCaCh. In kind it is binding, rat. The conditions noted are these: CVS.
A further data set deals with rNaCh. Briefly: CVS / cardio tox rNaCh. Type of data set: binding, rat. The conditions noted are these: CVS; read-out: rNaCh IC50.
For a further data set, the target named is hERG (Homo sapiens, UniProt Q12809). The data set is described as follows: CVS / cardio tox hERG (DOF). Type of data set: binding. The conditions noted are these: CVS; read-out: hERG IC50.
Chain of hERG (Q12809 whole entry): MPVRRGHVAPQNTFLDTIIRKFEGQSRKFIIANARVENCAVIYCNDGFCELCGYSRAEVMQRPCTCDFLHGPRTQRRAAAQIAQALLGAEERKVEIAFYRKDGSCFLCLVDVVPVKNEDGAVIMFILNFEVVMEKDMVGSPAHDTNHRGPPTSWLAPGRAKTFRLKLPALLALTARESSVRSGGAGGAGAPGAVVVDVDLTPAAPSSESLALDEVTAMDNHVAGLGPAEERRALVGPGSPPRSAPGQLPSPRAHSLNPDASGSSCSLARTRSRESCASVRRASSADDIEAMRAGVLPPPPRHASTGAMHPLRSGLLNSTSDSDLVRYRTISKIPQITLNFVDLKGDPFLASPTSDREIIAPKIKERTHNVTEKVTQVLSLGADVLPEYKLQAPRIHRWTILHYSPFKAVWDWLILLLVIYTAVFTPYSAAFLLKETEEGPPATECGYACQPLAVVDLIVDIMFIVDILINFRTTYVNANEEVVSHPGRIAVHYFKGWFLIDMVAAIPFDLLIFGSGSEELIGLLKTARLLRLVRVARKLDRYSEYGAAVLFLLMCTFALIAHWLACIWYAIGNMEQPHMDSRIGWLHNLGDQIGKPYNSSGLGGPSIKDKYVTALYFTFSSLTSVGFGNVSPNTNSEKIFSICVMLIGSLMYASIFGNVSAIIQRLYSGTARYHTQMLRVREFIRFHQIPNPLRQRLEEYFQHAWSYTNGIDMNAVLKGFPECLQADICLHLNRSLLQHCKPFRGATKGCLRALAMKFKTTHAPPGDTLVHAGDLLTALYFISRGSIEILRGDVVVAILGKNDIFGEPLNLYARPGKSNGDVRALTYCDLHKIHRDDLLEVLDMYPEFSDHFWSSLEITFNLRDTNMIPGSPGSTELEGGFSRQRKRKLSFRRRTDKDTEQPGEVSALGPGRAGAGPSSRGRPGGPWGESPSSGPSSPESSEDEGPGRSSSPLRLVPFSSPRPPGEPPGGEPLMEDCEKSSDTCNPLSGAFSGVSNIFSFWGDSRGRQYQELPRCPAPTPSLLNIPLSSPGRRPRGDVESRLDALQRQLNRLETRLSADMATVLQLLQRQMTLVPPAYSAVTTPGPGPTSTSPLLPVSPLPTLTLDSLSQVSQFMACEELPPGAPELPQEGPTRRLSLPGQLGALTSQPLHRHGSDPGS
The test system of a further data set is h-cardiomyocytes. Briefly: CTCM Ca2+ transient h-cardiomyocytes HTS. The conditions noted are these: 0.1 μm, 0.2 μm, 0.5 μm, 1 μm, 2.5 μm, 5 μm.
Data set [5] can be described thus: GSH and CN adducts (reactive metabolite formation).
Setting [6] is: Log Day 0 5.56 (Q203 experiment).
[7] abbreviates: galactose medium, read-out: IC50, gal.
The mark [8] stands for this setting: glucose medium, read-out: IC50, glu.

Values joined by “and” are separate entries in the source; they are usually repeats but may differ in a detail not shown here. Identical values can stand only once. Like-named read-outs stand apart in the source and are kept apart here. Bounds are passed on as bounds.

In the case of `Cc1c(-c2nc3cc(-c4ccc(OC(F)(F)F)cc4)ccn3n2)[nH]c2ccccc2c1=O` [Compound 2], in data set [1] (setting [6]), the “Log Day 21” value was 8.69 log CFUs per ml and the “Log Day 21-Log Day 0” value was “+3.13 log CFUs per ml”. Further, the IC50 in data set [2] was 1.33 µM. The IC50 in data set [3] (setting [7]) amounted to 100 µM. The IC50 in [3] (setting [8]) is 100 µM. In data set [3], the Score entry is given as “negative” and the “Δ IC50,glu/IC50,gal” value is “[x]0”. Moreover, in data set [4], the “(i) % OCR after cyt bd inhibitor” value is on record as 24.8% and the “(ii) % OCR after cccp” value is given as 38.3%.

`Cc1c(-c2nc3ccc(-c4ccc(OC(F)(F)F)cc4)cn3n2)[nH]c2ccccc2c1=O` [Compound 6]: the “Log Day 21” value in [1] (setting [6]) came to 8.64 log CFUs per ml; in [1] (Log Day 0 6.66), 9.06 log CFUs per ml. For the same compound, the “Log Day 21-Log Day 0” value in data set [1] (setting [6]) is reported as “+3.08 log CFUs per ml”; in data set [1] (Log Day 0 6.66), “+2.40 log CFUs per ml”. Also, the IC50 in data set [2] is 0.653 µM; in [3] (setting [7]), 21.9 µM and 22.1 µM; in data set [3] (setting [8]), 15.6 µM and 26.5 µM; in the data set on rCaCh it was > 10 µM; with rNaCh it was > 10 µM; at hERG, > 10 µM. In data set [3], the Score result is given as “negative”. Further, the “Δ IC50,glu/IC50,gal” value was 1.2 in data set [3] and 1.4 in data set [3] (listed as 6 (repeat)). Besides, in “AMES II b (+/−rat S9)”, the “AMES II b (+/−rat S9)” value was “negative”. Moreover, the CI in the data set “PK parameters in mice” (mice) is 1.69 mL/min/kg. The compound also returned a Fab % in the data set “PK parameters in mice” (mice) of 64%. In the data set “PK parameters in mice” (mouse, in vivo), this compound gave a half-life of 5.6 h. In addition, in the data set on h-cardiomyocytes, the “CTCM Ca2+ transient h-cardiomyocytes HTS” value is recorded as “all no”. Further, in [5], the “GSH and CN adducts” value was “negative”. The “(i) % OCR after cyt bd inhibitor” value in [4] came to 39.7%. Further, in data set [4], the “(ii) % OCR after cccp” value is reported as 58.4%.

As for `Cc1c(-c2nc3ccc(-c4cccc(OC(F)(F)F)c4)cn3n2)[nH]c2ccccc2c1=O` [Compound 7], in data set [1] (Log Day 0 6.66), the “Log Day 21” value is recorded as 9.13 log CFUs per ml and the “Log Day 21-Log Day 0” value is given as “+2.47 log CFUs per ml”. Moreover, in [2], the concentration for half-maximal inhibition (IC50) was 1.41 µM. In addition, the IC50 in data set [3] (setting [7]) came out at 20 µM. Also, in [3] (setting [8]), the IC50 came to 20 µM. In data set [3], the Score result was “negative” and the “Δ IC50,glu/IC50,gal” value is “[x]0”. Also, in data set [4], the “(i) % OCR after cyt bd inhibitor” value is given as 36.5% and the “(ii) % OCR after cccp” value amounted to 54.6%.
